Source: PMC4332533 (Neuropharmacology, 2014)

Assays:
[1] = target: α3Q37Cβ2 receptor (Rattus norvegicus, UniProt P04757+P12390, Q64C); test: Macroscopic evoked currents, two-electrode voltage-clamp, Xenopus laevis oocytes; type: cell-based; conditions: ACh alone; Hill fit
[2] = target: α3S125Cβ2Q39C receptor (Rattus norvegicus, UniProt P04757+P12390, Q65C/S152C); test: as above
[3] = target: α3S125Cβ2 receptor (Rattus norvegicus, UniProt P04757+P12390, S152C); test: as above; type: cell-based; conditions: ACh alone; Hill fit
[4] = target: α3Y168Cβ2 receptor (Rattus norvegicus, UniProt P04757+P12390, Y195C); test: as above; type: cell-based; conditions: ACh alone; Hill fit
[5] = target: α3β2A127Y receptor (Rattus norvegicus, UniProt P04757+P12390, A153Y); test: as above; type: cell-based; conditions: ACh alone; Hill fit
[6] = target: α3S125Yβ2W149A receptor (Rattus norvegicus, UniProt P04757+P12390, S152Y/W175A); test: as above; type: cell-based; conditions: ACh alone
[7] = target: α3β2W149A receptor; conditions: read-out: EC50 (ACh Activation); ACh alone; Hill fit; cited from earlier work
[8] = target: α3β2A127C receptor (Rattus norvegicus, UniProt P04757+P12390, A153C); test: Macroscopic evoked currents, two-electrode voltage-clamp, Xenopus laevis oocytes; type: cell-based; conditions: ACh alone; Hill fit
[9] = target: α3β2R46C receptor (Rattus norvegicus, UniProt P04757+P12390, R72C); test: as above; type: cell-based; conditions: ACh alone; Hill fit
[10] = target: α3β2D190Q receptor (Rattus norvegicus, UniProt P04757+P12390, D216Q); test: as above; type: cell-based; conditions: ACh alone; Hill fit
[11] = target: α3Y168Cβ2D190C receptor (Rattus norvegicus, UniProt P04757+P12390, D216C/Y195C); test: as above; type: cell-based; conditions: ACh alone; Hill fit; naive oocytes
[12] = target: α3Y168Fβ2D190Q receptor (Rattus norvegicus, UniProt P04757+P12390, D216Q/Y195F); test: as above; type: cell-based; conditions: ACh alone
[13] = target: α3E173Cβ2 receptor (Rattus norvegicus, UniProt P04757+P12390, E200C); test: as above; type: cell-based; conditions: ACh alone; Hill fit
[14] = target: α3S125Yβ2A127Y receptor (Rattus norvegicus, UniProt P04757+P12390, A153Y/S152Y); test: as above; type: cell-based; conditions: ACh alone
[15] = target: α3β2Q39C receptor (Rattus norvegicus, UniProt P04757+P12390, Q65C); test: as above; type: cell-based
[16] = target: α3E173Cβ2R46C receptor (Rattus norvegicus, UniProt P04757+P12390, E200C/R46C); test: as above; type: cell-based
[17] = target: α3Q37Cβ2A127C receptor (Rattus norvegicus, UniProt P04757+P12390, A153C/Q64C); test: as above; type: cell-based; conditions: ACh alone
[18] = target: α3E173Aβ2 receptor (Rattus norvegicus, UniProt P04757+P12390, E200A); test: as above; type: cell-based; conditions: ACh alone; Hill fit
[19] = target: α3Y168Fβ2 receptor (Rattus norvegicus, UniProt P04757+P12390, Y195F); test: as above; type: cell-based; conditions: ACh alone; Hill fit
[20] = target: α3β2R46V receptor (Rattus norvegicus, UniProt P04757+P12390, R72V); test: as above; type: cell-based; conditions: ACh alone; Hill fit
[21] = target: α3β2D190C receptor (Rattus norvegicus, UniProt P04757+P12390, D216C); test: as above; type: cell-based; conditions: ACh alone; Hill fit
[22] = target: α3E173Aβ2R46V receptor (Rattus norvegicus, UniProt P04757+P12390, E200A/R46V); test: as above; type: cell-based
[23] = thermodynamic cycle Ω from EC50s, ACh alone, location M4

α3E173Aβ2R46V receptor, sequence (P04757 26-499 E200A): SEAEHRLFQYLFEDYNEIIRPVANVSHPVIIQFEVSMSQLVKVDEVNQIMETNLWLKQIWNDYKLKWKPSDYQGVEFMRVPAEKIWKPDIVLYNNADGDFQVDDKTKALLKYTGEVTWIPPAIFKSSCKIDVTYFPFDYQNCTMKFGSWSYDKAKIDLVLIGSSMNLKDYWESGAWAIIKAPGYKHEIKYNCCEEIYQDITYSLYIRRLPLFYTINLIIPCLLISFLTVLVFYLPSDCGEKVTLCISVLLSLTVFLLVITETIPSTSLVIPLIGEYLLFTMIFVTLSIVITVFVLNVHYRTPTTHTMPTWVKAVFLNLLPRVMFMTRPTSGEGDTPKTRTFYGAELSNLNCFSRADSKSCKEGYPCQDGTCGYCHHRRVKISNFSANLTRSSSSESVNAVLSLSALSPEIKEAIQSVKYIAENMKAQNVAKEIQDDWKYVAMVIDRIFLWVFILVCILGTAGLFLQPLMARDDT
α3E173Aβ2R46V receptor, sequence (P12390 25-500 R46V): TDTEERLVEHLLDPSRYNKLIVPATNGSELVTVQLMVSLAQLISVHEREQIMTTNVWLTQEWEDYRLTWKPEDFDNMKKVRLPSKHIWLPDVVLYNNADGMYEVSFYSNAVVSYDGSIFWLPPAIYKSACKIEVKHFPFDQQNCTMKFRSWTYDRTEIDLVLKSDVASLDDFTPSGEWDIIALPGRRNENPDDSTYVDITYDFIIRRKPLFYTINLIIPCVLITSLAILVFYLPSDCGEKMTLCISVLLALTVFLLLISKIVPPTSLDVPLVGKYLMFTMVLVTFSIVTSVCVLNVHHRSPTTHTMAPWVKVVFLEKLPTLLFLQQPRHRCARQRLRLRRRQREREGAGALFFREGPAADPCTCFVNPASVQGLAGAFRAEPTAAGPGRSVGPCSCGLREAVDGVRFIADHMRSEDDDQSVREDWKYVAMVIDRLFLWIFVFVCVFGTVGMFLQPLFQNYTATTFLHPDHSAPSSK
α3E173Cβ2R46C receptor, sequence (P04757 26-499 E200C): as the sequence (P04757 26-499 E200A) above, with A175C counted along it
α3E173Cβ2R46C receptor, sequence (P12390 25-500 R46C): as the sequence (P12390 25-500 R46V) above, with V22C counted along it
α3S125Cβ2Q39C receptor, sequence (P04757 26-499 S152C): as the sequence (P04757 26-499 E200A) above, with S127C, A175E counted along it
α3S125Cβ2Q39C receptor, sequence (P12390 25-500 Q65C): as the sequence (P12390 25-500 R46V) above, with V22R, Q41C counted along it
α3Q37Cβ2A127C receptor, sequence (P04757 26-499 Q64C): as the sequence (P04757 26-499 E200A) above, with Q39C, A175E counted along it
α3Q37Cβ2A127C receptor, sequence (P12390 25-500 A153C): as the sequence (P12390 25-500 R46V) above, with V22R, A129C counted along it
α3β2Q39C receptor, sequence (P04757 26-499): as the sequence (P04757 26-499 E200A) above, with A175E counted along it
α3β2Q39C receptor, sequence (P12390 25-500 Q65C): as the sequence (P12390 25-500 R46V) above, with V22R, Q41C counted along it

## CC(=O)OCC[N+](C)(C)C [ACh, acetylcholine]
[1]
  nH (ACh Activation): 1.67 ± 0.44 [4]
[2]; ACh alone, Hill fit, naive oocytes
  nH (ACh Activation): 0.66 ± 0.09 [3–7]
[2]; from Table 2
  decrease in EC50 for ACh activation vs wild type: 60 fold
[2]; thermodynamic cycle Ω from EC50s, ACh alone, location A2
  Ω(ACh): 0.16
[3]
  nH (ACh Activation): 0.64 ± 0.13 [5–7]
[4]
  nH (ACh Activation): 0.70 ± 0.11 [11]
[5]
  nH (ACh Activation): 1.46 ± 0.20 [5]
[6]; Hill fit
  nH (ACh Activation): 0.61 ± 0.10 [6]
[6]; thermodynamic cycle Ω from EC50s, location A2
  Ω(ACh): 0.98
[7]
  EC50: 40 ± 6 µM
[8]
  nH (ACh Activation): 2.09 ± 0.34 [4]
[9]
  nH (ACh Activation): 0.88 ± 0.13 [5]
[10]
  nH (ACh Activation): 1.00 ± 0.15 [8]
[11]
  nH (ACh Activation): 0.68 ± 0.08 [10]
[12]; Hill fit
  nH (ACh Activation): 0.83 ± 0.09 [11]
[12]; thermodynamic cycle Ω from EC50s, location M1
  Ω(ACh): 18
[13]
  nH (ACh Activation): 1.16 ± 0.12 [7]
[14]; Hill fit
  nH (ACh Activation): 1.06 ± 0.19 [3]
[14]; thermodynamic cycle Ω from EC50s, location A2/M3
  Ω(ACh): 3.2
[15]; ACh alone, Hill fit
  nH (ACh Activation): 0.78 ± 0.12 [4]
[15]; from Table 2
  increase in EC50 for ACh activation vs wild type: 2 fold
[16]; 2 mM ACh, n = 8, one successful expression attempt
  Iaverage evoked by ACh: 60 ± 10 nA
[16]; ACh alone, Hill fit
  nH (ACh Activation): 0.85 ± 0.10 [5–6]
[16]; [23]
  Ω(ACh): 2.4
[17]; Hill fit, naive oocytes
  nH (ACh Activation): 0.97 ± 0.13 [6]
[17]; thermodynamic cycle Ω from EC50s, location M3
  Ω(ACh): 0.64
[18]
  nH (ACh Activation): 1.77 ± 0.26 [3–6]
[19]
  nH (ACh Activation): 0.61 ± 0.04 [12]
[20]
  nH (ACh Activation): 0.92 ± 0.14 [5–7]
[21]
  nH (ACh Activation): 1.05 ± 0.14 [9]
[22]; 800 µM ACh, n = 8
  Iaverage evoked by ACh: 990 ± 130 nA
[22]; ACh alone, Hill fit
  nH (ACh Activation): 0.82 ± 0.06 [7–8]
[22]; [23]
  Ω(ACh): 15
